Source: PubChem BioAssay AID328 (DTP/NCI, 2004)
“And” between values parts separate entries of the source, which are not always exact repeats. Equal values may be shown once. Toxic doses and inconclusive results are not listed.

Test system: BDF1 mice, P388 leukemia ip, median survival T/C
Assay: NCI In Vivo Anticancer Drug Screen. Data for tumor model P388 Leukemia (intraperitoneal) in B6D2F1 (BDF1) mice
Conditions: endpoint: median survival time, higher = longer survival
Method in brief: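 Antitumour effect was judged in vivo: survival in drug-treated mice, normalised to that of vehicle-dosed controls, gives the reported T/C.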

[1] = dose: 100.0 mg/kg/injection, schedule: Q04DX003 (ip), vehicle: Klucel (hydroxypropylcellulose) (HPC)
[2] = dose: 200.0 mg/kg/injection, schedule: Q01DX009 (ip), vehicle: Klucel (hydroxypropylcellulose) (HPC)
[3] = dose: 200.0 mg/kg/injection, schedule: Q04DX003 (ip), vehicle: Klucel (hydroxypropylcellulose) (HPC)
[4] = dose: 400.0 mg/kg/injection, schedule: Q04DX003 (ip), vehicle: Klucel (hydroxypropylcellulose) (HPC)
[5] = dose: 25.0 mg/kg/injection, schedule: Q01DX009 (ip), vehicle: saline
[6] = dose: 25.0 mg/kg/injection, schedule: Q04DX003 (ip), vehicle: saline
[7] = dose: 50.0 mg/kg/injection, schedule: Q01DX009 (ip), vehicle: saline
[8] = dose: 100.0 mg/kg/injection, schedule: Q04DX003 (ip), vehicle: saline
[9] = dose: 200.0 mg/kg/injection, schedule: Q04DX003 (ip), vehicle: saline
[10] = dose: 50.0 mg/kg/injection, schedule: Q01DX009 (ip), vehicle: saline with Tween-80
[11] = dose: 100.0 mg/kg/injection, schedule: Q01DX009 (ip), vehicle: saline with Tween-80
[12] = dose: 200.0 mg/kg/injection, schedule: Q01DX009 (ip), vehicle: saline with Tween-80
[13] = dose: 100.0 mg/kg/injection, schedule: Q01DX009 (ip), vehicle: saline
[14] = dose: 50.0 mg/kg/injection, schedule: Q01DX009 (ip), vehicle: Klucel (hydroxypropylcellulose) (HPC)
[15] = dose: 100.0 mg/kg/injection, schedule: Q01DX009 (ip), vehicle: Klucel (hydroxypropylcellulose) (HPC)
[16] = dose: 50.0 mg/kg/injection, schedule: Q04DX003 (ip), vehicle: saline
[17] = dose: 100.0 mg/kg/injection, schedule: Q04DX003 (ip), vehicle: saline with Tween-80
[18] = dose: 200.0 mg/kg/injection, schedule: Q04DX003 (ip), vehicle: saline with Tween-80
[19] = dose: 200.0 mg/kg/injection, schedule: Q01DX009 (ip), vehicle: saline
[20] = dose: 400.0 mg/kg/injection, schedule: Q01DX009 (ip), vehicle: saline
[21] = dose: 12.5 mg/kg/injection, schedule: Q01DX009 (ip), vehicle: saline with Tween-80
[22] = dose: 25.0 mg/kg/injection, schedule: Q01DX009 (ip), vehicle: saline with Tween-80
[23] = dose: 400.0 mg/kg/injection, schedule: Q01DX009 (ip), vehicle: saline with Tween-80

C[C@]12CC[C@H]3C(=CCc4cc(O)ccc43)[C@@H]1CCC2=O
T/C [1]: 95 % of control
T/C [2]: 91 % of control
T/C [3]: 90 % of control
T/C [4]: 95 % of control

CN(c1ccccc1)P(=O)(N1CC1)N1CC1
T/C (dose: 25.0 mg/kg/injection, schedule: Q04DX003 (ip), vehicle: saline with Tween-80): 172 % of control
T/C (dose: 37.5 mg/kg/injection, schedule: Q04DX003 (ip), vehicle: saline with Tween-80): 250 % of control

CC1CN1P1(N2CC2C)=NP(N2CC2C)(N2CC2C)=NP(N2CC2C)(N2CC2C)=N1 (centres undefined)
T/C (dose: 4.4 mg/kg/injection, schedule: Q01DX009 (ip), vehicle: saline): 122 % of control
T/C (dose: 6.6 mg/kg/injection, schedule: Q01DX009 (ip), vehicle: saline): 124 % of control
T/C (dose: 15.0 mg/kg/injection, schedule: Q01DX009 (ip), vehicle: saline): 161 % of control
T/C (dose: 16.5 mg/kg/injection, schedule: Q01DX009 (ip), vehicle: saline): 155 % of control
T/C [5]: 160 % of control and 164 % of control
T/C [6]: 114 % of control
T/C (dose: 37.5 mg/kg/injection, schedule: Q01DX009 (ip), vehicle: saline): 169 % of control
T/C [7]: 203 % of control
T/C [8]: 166 % of control and 214 % of control
T/C [9]: 102 % of control

O=[N+]([O-])c1cccc(OCCCOc2ccccc2)c1
T/C (dose: 100.0 mg/kg/injection, schedule: Q01DX009 (ip), vehicle: other): 100 % of control
T/C (dose: 100.0 mg/kg/injection, schedule: Q04DX003 (ip), vehicle: other): 110 % of control
T/C (dose: 200.0 mg/kg/injection, schedule: Q01DX009 (ip), vehicle: other): 100 % of control
T/C (dose: 200.0 mg/kg/injection, schedule: Q04DX003 (ip), vehicle: other): 110 % of control
T/C (dose: 400.0 mg/kg/injection, schedule: Q01DX009 (ip), vehicle: other): 100 % of control
T/C (dose: 400.0 mg/kg/injection, schedule: Q04DX003 (ip), vehicle: other): 100 % of control

O=C1CSC(c2ccccc2)N1c1nccs1 (centres undefined)
T/C [10]: 98 % of control
T/C [11]: 91 % of control
T/C [12]: 104 % of control

OCCNCCNc1ccnc2cc(Cl)ccc12
T/C (dose: 12.5 mg/kg/injection, schedule: Q01DX009 (ip), vehicle: saline): 102 % of control
T/C [5]: 115 % of control
T/C [7]: 116 % of control
T/C [13]: 118 % of control

Cc1ccc(Nc2c([N+](=O)[O-])c(=O)n(C)c(=O)n2C)cc1C
T/C [10]: 103 % of control
T/C [11]: 96 % of control
T/C [12]: 96 % of control

COc1ccccc1C(=O)NS(=O)(=O)c1ccc(Cl)cc1
T/C [14]: 105 % of control
T/C [15]: 110 % of control
T/C [2]: 120 % of control

CCCCCCC(=O)/C=C/c1cccc(O)c1
T/C [10]: 104 % of control
T/C [11]: 104 % of control
T/C [12]: 95 % of control

[Cl][Co][Cl].[NH-]CCN1CC1
T/C [6]: 103 % of control
T/C [16]: 107 % of control
T/C [8]: 103 % of control

CCCCCC(C)C(=O)CCCC (centres undefined) (tested in a mixture with another compound)
T/C (dose: 50.0 mg/kg/injection, schedule: Q04DX003 (ip), vehicle: saline with Tween-80): 104 % of control
T/C [17]: 104 % of control
T/C [18]: 100 % of control

O=c1[nH]cnc2c1ncn2C1OC(CF)C(O)C1O (centres undefined)
T/C (dose: 100.0 mg/kg/injection, schedule: Q01DX001 (ip), vehicle: saline): 108 % of control
T/C [13]: 86 % of control
T/C (dose: 200.0 mg/kg/injection, schedule: Q01DX001 (ip), vehicle: saline): 108 % of control
T/C [19]: 91 % of control
T/C (dose: 400.0 mg/kg/injection, schedule: Q01DX001 (ip), vehicle: saline): 108 % of control
T/C [20]: 86 % of control

O=C(CCCCl)CC(O)(C(F)(F)F)C(F)(F)F
T/C [21]: 95 % of control
T/C [22]: 100 % of control
T/C [10]: 115 % of control
T/C [11]: 104 % of control

CC(C)C1(C(=O)NN)OC2(O)CCCCCN2C1=O (centres undefined)
T/C [13]: 90 % of control
T/C [19]: 90 % of control
T/C [20]: 100 % of control

Nc1ccc2c(c1)Cc1cc(Br)ccc1-2
T/C [1]: 104 % of control
T/C [3]: 100 % of control
T/C [4]: 100 % of control

C/C=C1\C[N+]2(C)CCC34c5ccccc5NC32C(O)CC1C4(CO)C(=O)OC (centres undefined)
T/C (dose: 2.0 mg/kg/injection, schedule: Q01DX009 (ip), vehicle: saline with Tween-80): 98 % of control
T/C (dose: 4.0 mg/kg/injection, schedule: Q01DX009 (ip), vehicle: saline with Tween-80): 93 % of control
T/C (dose: 8.0 mg/kg/injection, schedule: Q01DX009 (ip), vehicle: saline with Tween-80): 94 % of control

COc1ccc(C(=O)/C=C/c2ccc(OCc3ccccc3)cc2)cc1
T/C [10]: 100 % of control
T/C [11]: 91 % of control
T/C [12]: 96 % of control

Cc1cccc(CSc2ncnc3nc[nH]c23)n1
T/C (dose: 25.0 mg/kg/injection, schedule: Q01DX009 (ip), vehicle: Klucel (hydroxypropylcellulose) (HPC)): 100 % of control
T/C (dose: 25.0 mg/kg/injection, schedule: Q04DX003 (ip), vehicle: Klucel (hydroxypropylcellulose) (HPC)): 104 % of control
T/C [14]: 87 % of control
T/C (dose: 50.0 mg/kg/injection, schedule: Q04DX003 (ip), vehicle: Klucel (hydroxypropylcellulose) (HPC)): 100 % of control
T/C [15]: 91 % of control
T/C [1]: 92 % of control and 104 % of control

Cc1cc2c([nH]c1=O)C(=O)c1c(O)cccc1C2=O
T/C (dose: 2.5 mg/kg/injection, schedule: Q01DX009 (ip), vehicle: Klucel (hydroxypropylcellulose) (HPC)): 103 % of control
T/C (dose: 5.0 mg/kg/injection, schedule: Q01DX009 (ip), vehicle: Klucel (hydroxypropylcellulose) (HPC)): 108 % of control
T/C (dose: 10.0 mg/kg/injection, schedule: Q01DX009 (ip), vehicle: Klucel (hydroxypropylcellulose) (HPC)): 103 % of control
T/C (dose: 20.0 mg/kg/injection, schedule: Q01DX009 (ip), vehicle: Klucel (hydroxypropylcellulose) (HPC)): 104 % of control
T/C (dose: 40.0 mg/kg/injection, schedule: Q01DX009 (ip), vehicle: Klucel (hydroxypropylcellulose) (HPC)): 95 % of control
T/C (dose: 80.0 mg/kg/injection, schedule: Q01DX009 (ip), vehicle: Klucel (hydroxypropylcellulose) (HPC)): 115 % of control

CCOC(=O)C(OCc1ccccc1)C(=O)OCC
T/C [11]: 87 % of control
T/C [8]: 115 % of control
T/C [12]: 104 % of control
T/C [9]: 90 % of control
T/C [23]: 108 % of control
T/C (dose: 400.0 mg/kg/injection, schedule: Q04DX003 (ip), vehicle: saline): 90 % of control

COc1ccc(-c2oc3cc(O)cc(O)c3c(=O)c2OC)cc1O
T/C (dose: 10.0 mg/kg/injection, schedule: Q01DX010 (ip), vehicle: saline): 100 % of control
T/C (dose: 20.0 mg/kg/injection, schedule: Q01DX010 (ip), vehicle: saline): 100 % of control
T/C (dose: 40.0 mg/kg/injection, schedule: Q01DX010 (ip), vehicle: saline): 109 % of control

CC(C)C(Br)C(N)=O (centres undefined)
T/C (dose: 12.5 mg/kg/injection, schedule: Q04DX003 (ip), vehicle: saline): 104 % of control
T/C [6]: 109 % of control
T/C [16]: 109 % of control

CC(C)C(O)(C(=O)NN)C(=O)NN
T/C [11]: 100 % of control
T/C [12]: 109 % of control
T/C [23]: 100 % of control

Cc1csc2ccccc12
T/C [21]: 111 % of control
T/C [22]: 102 % of control
T/C [10]: 119 % of control

CC1CC=CCC1COC(=O)C(=O)OCC1CC=CCC1C (centres undefined)
T/C [17]: 105 % of control
T/C [18]: 105 % of control
T/C (dose: 400.0 mg/kg/injection, schedule: Q04DX003 (ip), vehicle: saline with Tween-80): 110 % of control
